# Results as given in US9963433B2, “Anticancer drugs including the chemical structures of an androgen receptor ligand and a histone deacetylase inhibitor” (Wayne State University, priority 2016, dated 2018).
# Assays:
# DLC1 mRNA in LNCaP cells = assay: In situ HDACi activity: DLC1 mRNA in LNCaP cells; type: cell-based; conditions: 10 μM, 48 h, normalized to GAPDH mRNA, FIG. 2E
# Procedure: (§1) FIGS. 2A-2F show measurement of intrinsic and in situ HDACi activities. […]. IC50 values were calculated from nonlinear regression plots using GraphPad Prism5 software. (2B) Enz, 1002 and 3-52 were tested against HeLa cell nuclear extract at 10 μM and 25 μM and TSA (1 μM) was used as positive control. […] Recombinant HDAC6 was incubated with each drug at the indicated concentrations. IC50 values were calculated from nonlinear regression plots using GraphPad Prism5 software. (2D) Enz, 1002 and 3-52 were tested against recombinant HDAC6 at 10 μM and 25 μM and TSA (1 μM) was used as positive control. […]
# (§2) Cell Culture and Reagents. LNCaP and 22Rv1 cell lines were from American Type Culture Collection (Manassas, Va.). C4-2 cells were kindly provided by Dr. Edwin Sanchez (University of Toledo). LNCaP and C4-2 cells were routinely grown at 37° C. in 5% CO2 in RPMI 1640 medium supplemented with 10% FBS (Invitrogen); 100 units/ml penicillin, 100 μg/ml streptomycin, 2 mM L-glutamine mixture (Invitrogen); and sodium pyruvate (1 mM) (Invitrogen). 22Rv1 cells were grown in RPMI 1640 medium supplemented with 10% FBS (Invitrogen); 100 units/ml penicillin, 100 μg/ml streptomycin, 2 mM L-glutamine mixture (Invitrogen). Affinity-purified rabbit anti-human antibody to AR (sc-816) and mouse anti-human antibody to GAPDH (sc-47724) were purchased from Santa Cruz Biotechnology (Santa Cruz, Calif.). Affinity-purified rabbit anti-human antibody to Hsp90 (C45G5) #4877 and rabbit anti-human antibody to acetylated lysine #9441 were purchased from Cell Signaling Technology. R1881 was kindly provided by Dr. Stephan Patrick (Karmanos Cancer Institute). All experiments were conducted using phenol-red free growth media. For hormone depletion, cells were grown in phenol-red free RPMI 1640 medium supplemented with 10% charcoal stripped FBS (Sigma-Aldrich) which was heat inactivated at 56° C. for thirty minutes, and a mixture of 100 units/ml penicillin, 100 μg/ml streptomycin and 2 mM L-glutamine for 96 h.
# (§3) RNA isolation, Reverse Transcription, and Real Time PCR. Total RNA was isolated from cells using the RNeasy Mini Kit (Qiagen). Reverse transcription PCR was then performed using 500 ng of total RNA with random primers and using the high-capacity complementary DNA Archive kit (Applied Biosystems). The complementary DNA from this reaction was measured using quantitative real time PCR using the StepONE Plus Real Time PCR system (Life Technologies Corporation, Carlsbad, Calif.). All reactions were performed in triplicate and normalized to glyceraldehyde-3-phosphate-dehydrogenase values in the same samples. All primers and Taqman probes were purchased from the applied Biosystems inventory (Invitrogen) (Patki et al., 2015).
# . […]
# DLC1 mRNA in C4-2 cells = assay: In situ HDACi activity: DLC1 mRNA in C4-2 cells; type: cell-based; conditions: 48 h, normalized to GAPDH mRNA, FIG. 2F
# Procedure: as §1, §2, §3
# . […]
# p21 mRNA in LNCaP cells = assay: p21 mRNA induction in LNCaP cells; conditions: 10 μM, 48 h, FIG. 5A
# [1] = test system: AR chromatin association at KLK3 ARE enhancer elements; assay: ChIP of AR at KLK3 enhancer in C4-2 cells; conditions: compound 10 μM, R1881 1 nM or 10 nM, 2 h, FIG. 3C
# Procedure: (3C) C4-2 cells plated in hormone-depleted medium were treated with either vehicle, R1881, or the indicated compound for 2 h. Cells were harvested and subjected to ChIP using AR antibody. Taqman probes targeting ARE enhancer elements associated with the KLK3 gene were used to quantify the immunoprecipitated chromatin.
# Chromatin Immunoprecipitation (ChIP). […] The ChIP signals were measured by quantitative real time PCR analysis of the immunoprecipitated products.
# As a target site for the ChIP assay, the well-established AR binding enhancer elements located 4 kb upstream of the transcription initiation site of the KLK3 gene was chosen.
# AR = biological target: T1, AR (Homo sapiens, UniProt P10275, T878A); assay: Western blot of AR protein in C4-2 cells; type: cell-based; conditions: 1 μM to 10 μM, 24 h, relative to GAPDH, FIG. 4A
# T1 construct: endogenous in cells; host or cells: C4-2 cells
# T1 sequence (P10275 1-920 T878A): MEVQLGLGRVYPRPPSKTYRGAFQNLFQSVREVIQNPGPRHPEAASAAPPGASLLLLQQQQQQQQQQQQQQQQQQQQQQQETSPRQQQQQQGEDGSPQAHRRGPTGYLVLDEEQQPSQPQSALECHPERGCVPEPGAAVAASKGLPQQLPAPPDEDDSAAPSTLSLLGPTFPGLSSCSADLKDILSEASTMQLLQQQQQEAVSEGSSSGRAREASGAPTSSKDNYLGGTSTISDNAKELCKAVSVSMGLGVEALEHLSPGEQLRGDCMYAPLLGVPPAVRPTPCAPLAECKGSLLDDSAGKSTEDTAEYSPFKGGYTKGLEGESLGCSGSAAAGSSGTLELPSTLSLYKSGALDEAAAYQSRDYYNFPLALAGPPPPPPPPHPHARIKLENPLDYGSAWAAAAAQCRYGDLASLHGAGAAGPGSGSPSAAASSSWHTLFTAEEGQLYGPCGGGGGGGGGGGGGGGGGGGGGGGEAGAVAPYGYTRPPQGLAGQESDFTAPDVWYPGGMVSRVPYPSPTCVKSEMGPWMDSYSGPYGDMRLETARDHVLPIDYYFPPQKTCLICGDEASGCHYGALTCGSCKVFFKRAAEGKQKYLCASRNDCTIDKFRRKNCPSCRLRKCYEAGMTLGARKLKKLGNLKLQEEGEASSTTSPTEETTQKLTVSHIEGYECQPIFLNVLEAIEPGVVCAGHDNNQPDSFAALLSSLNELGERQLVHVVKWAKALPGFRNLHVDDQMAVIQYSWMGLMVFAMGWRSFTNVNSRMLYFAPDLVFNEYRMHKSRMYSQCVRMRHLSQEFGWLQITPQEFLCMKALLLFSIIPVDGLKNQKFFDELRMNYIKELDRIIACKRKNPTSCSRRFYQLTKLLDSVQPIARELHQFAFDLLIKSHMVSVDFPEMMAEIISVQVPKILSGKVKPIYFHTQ
# Procedure: Cells were then harvested for western blot analysis using antibody to AR (4A), HSP90 (4B), Acetyl-Lysine (4C) or GAPDH (loading control). ImageJ software was used to determine the intensities of the bands relative to the vehicle control for each protein. The values were then divided by the values for GAPDH within the same samples.
# Western Blot Analysis. Cells were washed once with phosphate buffered saline (PBS) and then lysed with RIPA buffer (150 mM NaCl, 1% Nonidet P-40, 0.5% sodium deoxycholate, 0.1% SDS, 50 mM Tris of pH 8.0) containing a protease inhibitor cocktail (Pierce, Thermo Fisher Scientific). The cell lysates were then incubated on ice for 40 minutes. Total protein concentrations were estimated using the Bradford Assay (Bio-Rad). Protein samples (10-40 ug) were heated at 95° C. for 5 minutes and resolved by electrophoresis on 8% polyacrylamide-SDS gels and electrophoretically transferred to PVDF membranes (Millipore, Billerica, Mass.). The membranes were then probed overnight at 4° C. with the appropriate primary antibody followed by the appropriate horseradish peroxidase-conjugated secondary antibody.
Compound,DLC1 mRNA expression (DLC1 mRNA in LNCaP cells),DLC1 mRNA expression (DLC1 mRNA in C4-2 cells),p21 mRNA expression (p21 mRNA in LNCaP cells),chromatin association of AR (ChIP signal) [1],AR protein level (degradation) (AR)
"CC1(C)C(=O)N(c2ccc(C#N)c(C(F)(F)F)c2)C(=S)N1c1ccc(C(=O)NCCCCCCC(=O)NO)c(F)c1 [Compound 2-75, 4-(3-(4-cyano-3-(trifluoromethyl)phenyl)-5,5-dimethyl-4-oxo-2-thioxoimidazolidin-1-yl)-2-fluoro-N-(7-(hydroxyamino)-7-oxoheptyl)benzamide]",poor inducers of DLC1 mRNA compared with SAHA,poor inducers of DLC1 mRNA compared with SAHA,induced p21 to a greater extent than SAHA,basal ChIP signal,more efficiently induced AR protein degradation
"CC1(C)C(=O)N(c2ccc(C#N)c(C(F)(F)F)c2)C(=S)N1c1ccc(/C=C/C(=O)NO)c(F)c1 [Compound 1005, (E)-3-(4-(3-(4-cyano-3-(trifluoromethyl)phenyl)-5,5-dimethyl-4-oxo-2-thioxoimidazolidin-1-yl)-2-fluorophenyl)-N-hydroxyacrylamide]",poor inducers of DLC1 mRNA compared with SAHA,poor inducers of DLC1 mRNA compared with SAHA,induced p21 to a greater extent than SAHA,,more efficiently induced AR protein degradation
"CNC(=O)c1ccc(N2C(=S)N(c3ccc(C#N)c(C(F)(F)F)c3)C(=O)C2(C)C)cc1F [Enz, Enzalutamide, reference compound]",had no effect,had no effect,had no effect,basal ChIP signal,
